Assay [1] relates to intracellular Bartonella henselae Houston-1. As to the kind of experiment: Assay for intracellular activity in infected HMEC-1 cells. It is filed as cell-based. On the procedure: HMEC-1 cells were maintained in MCDB131 medium supplemented with 10% FBS, 5% L-glutamine, 10 ng/mL epidermal growth factor, 1 μg/mL hydrocortisone, penicillin/streptomycin and amphotericin B. HMEC-1 cells were infected with Bartonella henselae Houston-1 at a multiplicity of infection (MOI) of 100 for 4 hour in medium without ciprofloxacin-derived compounds. After infection, the cells were washed 2× with PBS and then treated with gentamicin (200 μg/mL) for 1 hour. Infected cells were washed as before and medium containing ciprofloxacin-derived compound was added at concentrations of 0.1 μg/mL, 1.0 μg/mL and 10 μg/mL. Infected cells were then incubated for 24, 48 and 96 hour. Ciprofloxacin-derived compounds were then removed, and the infected cells were washed as before and lysed with 0.1% saponin Lysates were plated on chocolate agar. After incubation for 8 days, CFU's were counted to determine the number of viable intracellular bacteria.

Another assay has as its system Bartonella strains. In words: Agar dilution testing (MIC). It is filed as cell-based. The conditions noted are these: growth read after 1 week. On the procedure:
Agar was prepared with the N-acyl ciprofloxacin-derived compounds at concentrations of 10 μg/mL, 1.0 μg/mL and 0.1 μg/mL. An equivalent volume of DMSO was added to a control plate. Nine strains of Bartonella were harvested from 4-day-old plates, resuspended in 1.0 mL sterile HIB and adjusted to a McFarland 2.0 turbidity standard. Using a specific template, 12.5 μL of broth suspensions of each Bartonella strain was pipetted onto each of the fluoroquinalone compound-containing chocolate agar plates and the DMSO control plate. After 1 week, the growth of each Bartonella strain was examined and recorded.
In general terms: In agar dilution, organisms are placed on agar that contains the substance at set levels.

The text below walks through data of US8143398B1, “Activity of new N-acylated ciprofloxacin derivatives against faculative intracellular bacteria” (University of South Florida, priority 2010, dated 2012).

On to `CC(=O)N1CCN(c2cc3c(cc2F)c(=O)c(C(=O)N2CCN(c4cc5c(cc4F)c(=O)c(C(=O)O)cn5C4CC4)CC2)cn3C2CC2)CC1` [RC5-69], for which the “activity against intracellular bacteria” value in assay [1] was “significant activity against intracellular bacteria”.

For the compound `CCCC(=O)N1CCN(c2cc3c(cc2F)c(=O)c(C(=O)O)cn3C2CC2)CC1` [RC5-29], the “activity against intracellular bacteria” value in assay [1] was “significant activity against intracellular bacteria”.

With `CC(C)(C)C(=O)N1CCN(c2cc3c(cc2F)c(=O)c(C(=O)O)cn3C2CC2)CC1` [RC5-32], in assay [1], the “activity against intracellular bacteria” value is listed as “significant activity against intracellular bacteria”.

Regarding `CCC(=O)N1CCN(c2cc3c(cc2F)c(=O)c(C(=O)O)cn3C2CC2)CC1` [RC4-147], the “activity against intracellular bacteria” value in assay [1] is given as “significant activity against intracellular bacteria”. The “decrease in CFUs (intracellular colony forming units)” value in assay [1] (infected HMEC cells treated with 1.0 μg/mL for 24 hours) is listed as “greater than a tenfold decrease”.

Turning to `CC(=O)N1CCN(c2cc3c(cc2F)c(=O)c(C(=O)O)cn3C2CC2)CC1` [RC4-125], the “MIC (minimal inhibitory concentration)” value with Bartonella strains lay in the range of 1.0 to 10.0 µg/mL. For the same compound, in assay [1], the “activity against intracellular bacteria” value is reported as “significant activity against intracellular bacteria”.

Take `CCC(C)(C)C(=O)N1CCN(c2cc3c(cc2F)c(=O)c(C(=O)O)cn3C2CC2)CC1` [RC4-143]: the “MIC (minimal inhibitory concentration)” value in the assay on Bartonella strains fell in the range of 0.1 to 0.5 µg/mL. For the same compound, the “activity against intracellular bacteria” value in assay [1] is “significant activity against intracellular bacteria”.
